One may read the LD50 as the dose at which mortality reaches 50%.

Read-outs that look alike come from different tables or passages of the source.

Series [1] relates to murine peritoneal exudate cells (PEC). Kind of series: "In vitro-ex vivo" effect on the phagocytic activity of exudate peritoneal cells (SRBC phagocytosis). Set-up: species or system mouse (B6 D2 F1). The note with it: for SRBC per phagocytizing cell: average number of SRBC in each phagocyte. The protocol:
Assessment of the "in vitro-ex vivo" effect of ST 557, ST 563, ST 564, ST 570, ST 608 and ST 626 on the phagocytic activity of exudate peritoneal cells (PEC)
Male B6 D2 F1 mice aged 6-8 weeks (5 animals each group) were used.
The compounds were administered i.p. (25 mg/kg/day), ST 557, ST 563 and ST 626 were also administered per os (100 mg/kg/day) from day -5 to day -1 (PEC harvesting at day 0).
The experimental procedure was substantially the same as that described by Williams et al., in "Methods in Immunology and Immunochemistry", Acad. Press. 5: 261 (1976).
In particular, 24 hours following the end of the treatment, PECs from each experimental group were harvested, pooled and their concentration was adjusted to 4×10^6 cells/ml.
To volumes of 250 μl of each PEC sample were added equal volumes of 0.4% SRBC (Sheep Red Blood Cells) opsonized with hyperimmune serum.
The samples (duplicate) were incubated for 1 hour and then subjected to hypotonic shock in order to remove the non-phagocytized SRBC. After restoring the osmolarity, the phagocytes were cytocentrifuged, stained with a differential dye and observed under the microscope.
The results were expressed as:
(a) percentage of cells that have phagocytized with respect to 100 phagocytizing cells;
(b) total number of phagocytized SRBC;
(c) average number of SRBC in each phagocyte.

A further series has as its system splenocytes. Kind of series: "In vitro-ex vivo" effect on the mytogen (PHA, ConA, LPS)-induced splenocyte proliferation in mice immunodepressed with cyclophosphamide. Set-up: species or system mouse (B6 D2 F1). The note with it: for S.I. (stimulation index): with respect to the immunodepressed controls; for AUC (area under curve): immunodepressed. As for the experimental part: Assessment of the "in vitro-ex vivo" effect of ST 557, ST 563 ST 564 on the mytogen (PHA, ConA, LPS)-Induced splenocyte proliferation in mice Immunodepressed with cyclotohosphamide
Male B6 D2 F1 mice aged 7-9 weeks (5 mice per group) were used.
The immunosuppressor (cyclophosphamide) was administered i.p. at the dose of 100 mg/kg at day -5. The compounds were administered i.p. (25 mg/kg/day) and per os (100 mg/kg/day) from day -5 to day -1 (spleen excision at day 0).
Splenocyte proliferation was induced by three different mytogens: PHA and ConA active on T-lymphocytes, and LPS active on B-lymphocytes. Each mytogen was tested at three different concentrations (suboptimal, optimal and superoptimal) corresponding to 0.5, 4 and 6 mcg/ml/well for PHA; 0.5, 4 and 8 mcg/ml/well for ConA and 0.5, 150 and 500 mcg/ml/well for LPS.
The experimental procedure is identical to that described in test 4.
The results are expressed as both AUC (see test 4) and S.I. In order to assess the efficacy of the immunosuppressor and the activity of the tested compounds, S.I. has been determined both for the immunodepressed controls (with respect to the normal controls) and for the immunodepressed treated animals (with respect to the immunodepressed controls), respectively. [formula]

Series [2] can be described thus: Tolerability after oral or intravenous administration. Set-up: species or system mouse (Swiss albino). The conditions noted are these: mouse, in vivo, 7 days observation, read-out: Tolerability, dose. As for the experimental part: The test was conducted in male Swiss albino mice weighing 22-24 g.
A group of animals (4 animals/dose) which had been kept fasting for 18 hours, were orally administered the compounds ST 557, ST 563, ST 564 and ST 570 dissolved in twice distilled water.
A further group of animals, which had free access to food and water, were administered intravenously the same compounds dissolved in saline it pH 7. All the animals were kept under observation for 7 days.

The next series in a line: LD50, intravenous. The note with it: mouse, in vivo, 0.9% saline. The protocol:
LD50 was determined according to Carrol S. Weil's method, Biometrics, pages 249-263 (1952) in male Swiss albino mice weighing 22-24 g.
The various compounds dissolved in 0.9% saline were administered intravenously.

With `COc1cc2c(cc1OC)CC(N(CC1CC1)CC1CC1)CC2` (stereo not shown) [ST 557, 2-[(N,N-dicyclopropylmethyl)amino]-6,7-dimethoxytetraline], the figures for the Fagocytizing cells in series [1] (25 mg/kg/day i.p.) and in series [1] (100 mg/kg/day os) were 29.6% and 59.0%, respectively. Moreover, the “Total n° SRBC phagocytized” value in series [1] (25 mg/kg/day i.p.) was 93.6; in series [1] (100 mg/kg/day os), 190.5. The “SRBC per phagocytizing cell” value in series [1] (25 mg/kg/day i.p.) turned out to be 3.20; in series [1] (100 mg/kg/day os), 3.23. In addition, the “S.I. (stimulation index)” value in the series on splenocytes (ConA, 25 mg/kg/day i.p.) is 1.50; in the series with splenocytes (ConA, 100 mg/kg/day os), 0.92; in the series with splenocytes (LPS, 25 mg/kg/day i.p.) it was 5.85; with splenocytes (LPS, 100 mg/kg/day os), 0.97; in the series on splenocytes (PHA, 25 mg/kg/day i.p.) it was 1.90. Moreover, the “AUC (area under curve)” value with splenocytes (ConA, 25 mg/kg/day i.p.) is 763 ± 14 ×10^-3; with splenocytes (ConA, 100 mg/kg/day os), 675 ± 21 ×10^-3; in the series with splenocytes (LPS, 25 mg/kg/day i.p.), 6411 ± 214 ×10^-3; with splenocytes (LPS, 100 mg/kg/day os) it was 4485 ± 433 ×10^-3; in the series with splenocytes (PHA, 25 mg/kg/day i.p.), 191 ± 10 ×10^-3. For the same molecule, the MTD at 168 h in series [2] (iv) was more than 4 mg/kg; in series [2] (po, os, fasting 18 hours), more than 20 mg/kg. Also, the 50% lethal dose (LD50) in the series “LD50, intravenous” was determined as 28.3 mg/kg.
Turning to `COc1cc2c(cc1OC)CC(NCC(O)c1ccc(C)cc1)CC2` (stereo not shown) [ST 563, 2-[(N-2-hydroxy-2-(4-methylphenyl)ethyl)amino]-6,7-dimethoxytetraline], the Fagocytizing cells in series [1] (25 mg/kg/day i.p.) stood at 42.5%; in series [1] (100 mg/kg/day os), 58.5%. The “Total n° SRBC phagocytized” value in series [1] (25 mg/kg/day i.p.) is listed as 146.0; in series [1] (100 mg/kg/day os), 164.0. Moreover, the results for the “SRBC per phagocytizing cell” value in series [1] (25 mg/kg/day i.p.) and in series [1] (100 mg/kg/day os) were 3.40 and 2.80, respectively. Moreover, the “S.I. (stimulation index)” value with splenocytes (ConA, 25 mg/kg/day i.p.) was found to be 1.31; in the series with splenocytes (ConA, 100 mg/kg/day os), 0.84; with splenocytes (LPS, 25 mg/kg/day i.p.) it was 4.02; with splenocytes (LPS, 100 mg/kg/day os), 0.41; in the series on splenocytes (PHA, 25 mg/kg/day i.p.) it was 2.17. Also, the “AUC (area under curve)” value is given as 666 ± 16 ×10^-3 in the series with splenocytes (ConA, 25 mg/kg/day i.p.); 619 ± 12 ×10^-3 with splenocytes (ConA, 100 mg/kg/day os); 3715 ± 200 ×10^-3 in the series with splenocytes (LPS, 25 mg/kg/day i.p.); 3501 ± 360 ×10^-3 with splenocytes (LPS, 100 mg/kg/day os); 217 ± 14 ×10^-3 with splenocytes (PHA, 25 mg/kg/day i.p.). Moreover, the MTD at 168 h in series [2] (iv) was more than 20 mg/kg; in series [2] (po, os, fasting 18 hours), more than 50 mg/kg.

(Values after patent US5962525A, “6,7-disubstituted-2-aminotetralines active as immunomodulators and pharmaceutical compositions containing same” (Sigma-Tau, priority 1990, dated 1999).)
